Assay results: PubChem BioAssay (NCI)
Values joined by “and” are separate entries in the source; they are usually repeats but may differ in a detail not shown here. Equal entries are not always repeated.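 Method: 48-hour compound exposure of cells in 96-well plates, five concentrations, linear interpolation of endpoints. GI50 = concentration required for 50% inhibition of growth. TGI denotes the concentration required for complete inhibition of growth.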

Assays:
Assay in all cases: NCI tumour cell line growth inhibition, 48 h
CCRF-CEM leukemia = test system: CCRF-CEM leukemia
HOP-62 NSCLC = test system: HOP-62 NSCLC
HS 578T breast = test system: HS 578T breast
K-562 leukemia = test system: K-562 leukemia
MALME-3M melanoma = test system: MALME-3M melanoma
RXF 393 renal = test system: RXF 393 renal
SK-OV-3 ovarian = test system: SK-OV-3 ovarian
UACC-257 melanoma = test system: UACC-257 melanoma
HCC-2998 colon = test system: HCC-2998 colon
UACC-62 melanoma = test system: UACC-62 melanoma

Work on COc1ccc2c(c1)/C(=C\c1cccnc1)C(=O)N2 yielded a GI50 (CCRF-CEM leukemia) of 10.8 µM, a TGI (CCRF-CEM leukemia) of over 100 µM and a GI50 (HOP-62 NSCLC) of 23 µM. For the same compound, the TGI (HOP-62 NSCLC) was 60.3 µM, the GI50 (HS 578T breast) was 31.1 µM and the TGI (HS 578T breast) was 94.7 µM. The GI50 (K-562 leukemia) was 13.8 µM, the TGI (K-562 leukemia) was over 100 µM and the GI50 (MALME-3M melanoma) was 21 µM. For the same compound, the TGI (MALME-3M melanoma) was 47.9 µM, the GI50 (RXF 393 renal) was 13.4 µM and the TGI (RXF 393 renal) was 37 µM. For the same compound, the GI50 (SK-OV-3 ovarian) was 20.3 µM, the TGI (SK-OV-3 ovarian) was 46.5 µM and the GI50 (UACC-257 melanoma) was 14.8 µM. The TGI (UACC-257 melanoma) was 31.8 µM.
For O=C1C=C(NCCNC(=S)Nc2ccccc2)c2nccc3c2c1nc1ccccc13, the GI50 (CCRF-CEM leukemia) was over 100 µM, the TGI (CCRF-CEM leukemia) was over 100 µM and the GI50 (HCC-2998 colon) was 17.6 µM. The TGI (HCC-2998 colon) was over 100 µM, the GI50 (HOP-62 NSCLC) was 81.7 µM and the TGI (HOP-62 NSCLC) was over 100 µM. It also gave a GI50 (HS 578T breast) of over 100 µM, a TGI (HS 578T breast) of over 100 µM and a GI50 (K-562 leukemia) of 35.1 µM. The TGI (K-562 leukemia) was over 100 µM, the GI50 (MALME-3M melanoma) was 30.1 µM and the TGI (MALME-3M melanoma) was over 100 µM. For the same compound, the GI50 (SK-OV-3 ovarian) was over 100 µM, the TGI (SK-OV-3 ovarian) was over 100 µM and the GI50 (UACC-257 melanoma) was 93.2 µM. It also gave a TGI (UACC-257 melanoma) of over 100 µM, a GI50 (UACC-62 melanoma) of 20.6 µM and a TGI (UACC-62 melanoma) of 73 µM.
With CC(C)CNCC(O)COc1ccc(C(C)(C)c2ccc(OCC(O)CNCC(C)C)cc2)cc1 (stereo unspecified) the GI50 (CCRF-CEM leukemia) was 2.38 µM, the TGI (CCRF-CEM leukemia) was 6.18 µM and the GI50 (HCC-2998 colon) was 2.02 µM. The TGI (HCC-2998 colon) was 4.26 µM, the GI50 (HOP-62 NSCLC) was 2.92 µM and the TGI (HOP-62 NSCLC) was 11.7 µM. The GI50 (HS 578T breast) was 5 µM, the TGI (HS 578T breast) was 21.9 µM and the GI50 (MALME-3M melanoma) was 1.71 µM. It also gave a TGI (MALME-3M melanoma) of 3.32 µM, a GI50 (RXF 393 renal) of 1.66 µM and a TGI (RXF 393 renal) of 3.67 µM. The GI50 (SK-OV-3 ovarian) was 4.09 µM, the TGI (SK-OV-3 ovarian) was 15.3 µM and the GI50 (UACC-257 melanoma) was 1.73 µM. For the same compound, the TGI (UACC-257 melanoma) was 3.26 µM, the GI50 (UACC-62 melanoma) was 1.82 µM and the TGI (UACC-62 melanoma) was 3.4 µM.
CCN(CC)CCNc1ccc([N+](=O)[O-])c2sc3ccccc3c(=O)c12 gave a GI50 (CCRF-CEM leukemia) of 0.732 µM, a TGI (CCRF-CEM leukemia) of 3.26 µM and a GI50 (HOP-62 NSCLC) of 1.27 µM. The TGI (HOP-62 NSCLC) was 3.64 µM, the GI50 (HS 578T breast) was 2.17 µM and the TGI (HS 578T breast) was 8.15 µM. The GI50 (K-562 leukemia) was 0.582 µM, the TGI (K-562 leukemia) was 3.39 µM and the GI50 (MALME-3M melanoma) was 1.47 µM. The TGI (MALME-3M melanoma) was 3.63 µM, the GI50 (RXF 393 renal) was 1.43 µM and the TGI (RXF 393 renal) was 3.03 µM. The GI50 (SK-OV-3 ovarian) was 2.08 µM, the TGI (SK-OV-3 ovarian) was 6.3 µM and the GI50 (UACC-257 melanoma) was 1.37 µM. It also gave a TGI (UACC-257 melanoma) of 3.12 µM, a GI50 (UACC-62 melanoma) of 2.79 µM and a TGI (UACC-62 melanoma) of 16.8 µM.
CSC(CC(=O)O)C(=O)O (stereo unspecified) gave a TGI (CCRF-CEM leukemia) of over 100 µM, a TGI (HCC-2998 colon) of over 100 µM and a TGI (HOP-62 NSCLC) of over 100 µM. For the same compound, the TGI (HS 578T breast) was over 100 µM, the TGI (MALME-3M melanoma) was over 100 µM and the TGI (RXF 393 renal) was over 100 µM. The TGI (SK-OV-3 ovarian) was over 100 µM, the TGI (UACC-257 melanoma) was over 100 µM and the TGI (UACC-62 melanoma) was over 100 µM.
In the case of COc1ccc2c(c1)C(=O)c1c-2n(CCCN=[N+]=[N-])c(=O)c2cc(N(C)C)ccc12, the GI50 (HCC-2998 colon) is reported as over 100 µM, the TGI (HCC-2998 colon) is reported as over 100 µM and the GI50 (HOP-62 NSCLC) is reported as 10.3 µM. It also gave a TGI (HOP-62 NSCLC) of over 100 µM, a GI50 (HS 578T breast) of 37.5 µM and a TGI (HS 578T breast) of over 100 µM. It also gave a GI50 (K-562 leukemia) of over 100 µM, a TGI (K-562 leukemia) of over 100 µM and a GI50 (MALME-3M melanoma) of over 100 µM. It also gave a TGI (MALME-3M melanoma) of over 100 µM, a GI50 (RXF 393 renal) of 5.16 µM and a TGI (RXF 393 renal) of 80.8 µM. The GI50 (SK-OV-3 ovarian) was over 100 µM, the TGI (SK-OV-3 ovarian) was over 100 µM and the GI50 (UACC-257 melanoma) was over 100 µM. For the same compound, the TGI (UACC-257 melanoma) was over 100 µM, the GI50 (UACC-62 melanoma) was over 100 µM and the TGI (UACC-62 melanoma) was over 100 µM.
In the case of CC[C@@]1(O)C[C@H](OC2CC(N(C)C)C(OC3CC(O)C(OC4CCC(=O)C(C)O4)C(C)O3)C(C)O2)c2c(cc3c(c2O)C(=O)c2c(O)cccc2C3=O)[C@H]1C(=O)OC (stereo partly specified), the GI50 (CCRF-CEM leukemia) is reported as 0.00779 µM and 0.0022 µM, the TGI (CCRF-CEM leukemia) is reported as 0.7 µM and 2.69 µM and the TGI (HCC-2998 colon) is reported as 0.0746 µM and 0.351 µM. For the same compound, the TGI (HOP-62 NSCLC) was 0.139 µM and 0.504 µM, the TGI (HS 578T breast) was 0.135 µM and the TGI (MALME-3M melanoma) was 0.0991 µM and 0.128 µM. The TGI (RXF 393 renal) was 0.0345 µM and 0.124 µM, the TGI (SK-OV-3 ovarian) was 1.31 µM and 5.14 µM and the TGI (UACC-257 melanoma) was 0.179 µM and 0.26 µM. The TGI (UACC-62 melanoma) was 0.0491 µM and 0.115 µM.
Cc1c(S(C)(=O)=O)c(-c2cc(F)cc(N3CCN(c4ccc(NS(=O)(=O)c5ccc(N[C@H](CCN6CCC(C(=O)OCCCP(=O)(O)O)CC6)CSc6ccccc6)c(S(=O)(=O)C(F)(F)F)c5)cc4)CC3)c2)c(-c2ccc(Cl)cc2)n1C(C)C showed a GI50 (CCRF-CEM leukemia) of 0.456 µM, a TGI (CCRF-CEM leukemia) of over 100 µM and a GI50 (HCC-2998 colon) of 2.13 µM. It also gave a TGI (HCC-2998 colon) of over 100 µM, a GI50 (HOP-62 NSCLC) of over 100 µM and a TGI (HOP-62 NSCLC) of over 100 µM. The GI50 (HS 578T breast) was over 100 µM, the TGI (HS 578T breast) was over 100 µM and the GI50 (MALME-3M melanoma) was over 100 µM. The TGI (MALME-3M melanoma) was over 100 µM, the GI50 (RXF 393 renal) was over 100 µM and the TGI (RXF 393 renal) was over 100 µM. It also gave a GI50 (SK-OV-3 ovarian) of over 100 µM, a TGI (SK-OV-3 ovarian) of over 100 µM and a GI50 (UACC-257 melanoma) of over 100 µM. For the same compound, the TGI (UACC-257 melanoma) was over 100 µM, the GI50 (UACC-62 melanoma) was over 100 µM and the TGI (UACC-62 melanoma) was over 100 µM.
For COc1cc(/C=C2\CCC/C(=C\c3cc(OC)c(O)c(OC)c3)C2=O)cc(OC)c1O, the TGI (CCRF-CEM leukemia) was 17.8 µM, the GI50 (HOP-62 NSCLC) was 5.93 µM and the TGI (HS 578T breast) was over 100 µM. The GI50 (K-562 leukemia) was 2.26 µM, the TGI (K-562 leukemia) was 75 µM and > 100 µM and the TGI (MALME-3M melanoma) was 4.38 µM and 3.3 µM. It also gave a TGI (RXF 393 renal) of 3.22 µM, a TGI (SK-OV-3 ovarian) of over 100 µM and a GI50 (UACC-257 melanoma) of 2.92 µM. The TGI (UACC-257 melanoma) was 75 µM and > 100 µM and the TGI (UACC-62 melanoma) was 5.2 µM.
With COc1cc(/C=C\c2ccc(C)cc2)cc(OC)c1OC the TGI (CCRF-CEM leukemia) was under 0.044 µM, the GI50 (HCC-2998 colon) was under 0.0129 µM and the TGI (HCC-2998 colon) was 0.215 µM and < 0.0303 µM. The TGI (HOP-62 NSCLC) was 34.1 µM, the GI50 (HS 578T breast) was 0.0358 µM and the TGI (K-562 leukemia) was 11.7 µM. The GI50 (UACC-257 melanoma) was under 0.021 µM and the TGI (UACC-257 melanoma) was over 76.6 µM.
O=Nc1c(-c2c(O)[nH]c3ccc([N+](=O)[O-])cc23)[nH]c2ccc(O)cc12 showed a GI50 (CCRF-CEM leukemia) of 0.11 µM, a TGI (CCRF-CEM leukemia) of 12.2 µM and a GI50 (HCC-2998 colon) of 0.836 µM. For the same compound, the TGI (HCC-2998 colon) was over 100 µM, the GI50 (HOP-62 NSCLC) was 0.524 µM and the TGI (HOP-62 NSCLC) was over 33.6 µM. The GI50 (HS 578T breast) was 0.345 µM, the TGI (HS 578T breast) was over 100 µM and the GI50 (K-562 leukemia) was 0.456 µM. The TGI (K-562 leukemia) was over 37.7 µM, the GI50 (MALME-3M melanoma) was 0.781 µM and the TGI (MALME-3M melanoma) was 45.3 µM. For the same compound, the GI50 (RXF 393 renal) was 0.18 µM, the TGI (RXF 393 renal) was 0.475 µM and the GI50 (UACC-257 melanoma) was 0.647 µM. It also gave a TGI (UACC-257 melanoma) of over 83.9 µM, a GI50 (UACC-62 melanoma) of 0.211 µM and a TGI (UACC-62 melanoma) of 0.439 µM.
For CCOC(=O)C1=C(C(=O)c2ccc(C)cc2)C(c2cccc([N+](=O)[O-])c2)C(C(=O)c2ccc(C)cc2)=C(C(=O)OCC)N1, the TGI (CCRF-CEM leukemia) was 8.57 µM, the TGI (HOP-62 NSCLC) was 41 µM and the TGI (HS 578T breast) was 63.9 µM. The TGI (K-562 leukemia) was 57.9 µM, the TGI (MALME-3M melanoma) was 66.4 µM and the TGI (RXF 393 renal) was 68.6 µM. The TGI (SK-OV-3 ovarian) was 27.9 µM, the TGI (UACC-257 melanoma) was 41.4 µM and the TGI (UACC-62 melanoma) was 33.5 µM.
